Measured values taken from patent US20070021434A1, “NON-NUCLEOSIDE ANTI-HEPACIVIRUS AGENTS AND USES THEREOF” (Migenix Inc., priority 2005, published 2007).

molecular target: HCV RdRp (NS5B) (UniProt P26663); assay type: biochemical, hepatitis C virus
Sequence (P26663 whole entry, looked up): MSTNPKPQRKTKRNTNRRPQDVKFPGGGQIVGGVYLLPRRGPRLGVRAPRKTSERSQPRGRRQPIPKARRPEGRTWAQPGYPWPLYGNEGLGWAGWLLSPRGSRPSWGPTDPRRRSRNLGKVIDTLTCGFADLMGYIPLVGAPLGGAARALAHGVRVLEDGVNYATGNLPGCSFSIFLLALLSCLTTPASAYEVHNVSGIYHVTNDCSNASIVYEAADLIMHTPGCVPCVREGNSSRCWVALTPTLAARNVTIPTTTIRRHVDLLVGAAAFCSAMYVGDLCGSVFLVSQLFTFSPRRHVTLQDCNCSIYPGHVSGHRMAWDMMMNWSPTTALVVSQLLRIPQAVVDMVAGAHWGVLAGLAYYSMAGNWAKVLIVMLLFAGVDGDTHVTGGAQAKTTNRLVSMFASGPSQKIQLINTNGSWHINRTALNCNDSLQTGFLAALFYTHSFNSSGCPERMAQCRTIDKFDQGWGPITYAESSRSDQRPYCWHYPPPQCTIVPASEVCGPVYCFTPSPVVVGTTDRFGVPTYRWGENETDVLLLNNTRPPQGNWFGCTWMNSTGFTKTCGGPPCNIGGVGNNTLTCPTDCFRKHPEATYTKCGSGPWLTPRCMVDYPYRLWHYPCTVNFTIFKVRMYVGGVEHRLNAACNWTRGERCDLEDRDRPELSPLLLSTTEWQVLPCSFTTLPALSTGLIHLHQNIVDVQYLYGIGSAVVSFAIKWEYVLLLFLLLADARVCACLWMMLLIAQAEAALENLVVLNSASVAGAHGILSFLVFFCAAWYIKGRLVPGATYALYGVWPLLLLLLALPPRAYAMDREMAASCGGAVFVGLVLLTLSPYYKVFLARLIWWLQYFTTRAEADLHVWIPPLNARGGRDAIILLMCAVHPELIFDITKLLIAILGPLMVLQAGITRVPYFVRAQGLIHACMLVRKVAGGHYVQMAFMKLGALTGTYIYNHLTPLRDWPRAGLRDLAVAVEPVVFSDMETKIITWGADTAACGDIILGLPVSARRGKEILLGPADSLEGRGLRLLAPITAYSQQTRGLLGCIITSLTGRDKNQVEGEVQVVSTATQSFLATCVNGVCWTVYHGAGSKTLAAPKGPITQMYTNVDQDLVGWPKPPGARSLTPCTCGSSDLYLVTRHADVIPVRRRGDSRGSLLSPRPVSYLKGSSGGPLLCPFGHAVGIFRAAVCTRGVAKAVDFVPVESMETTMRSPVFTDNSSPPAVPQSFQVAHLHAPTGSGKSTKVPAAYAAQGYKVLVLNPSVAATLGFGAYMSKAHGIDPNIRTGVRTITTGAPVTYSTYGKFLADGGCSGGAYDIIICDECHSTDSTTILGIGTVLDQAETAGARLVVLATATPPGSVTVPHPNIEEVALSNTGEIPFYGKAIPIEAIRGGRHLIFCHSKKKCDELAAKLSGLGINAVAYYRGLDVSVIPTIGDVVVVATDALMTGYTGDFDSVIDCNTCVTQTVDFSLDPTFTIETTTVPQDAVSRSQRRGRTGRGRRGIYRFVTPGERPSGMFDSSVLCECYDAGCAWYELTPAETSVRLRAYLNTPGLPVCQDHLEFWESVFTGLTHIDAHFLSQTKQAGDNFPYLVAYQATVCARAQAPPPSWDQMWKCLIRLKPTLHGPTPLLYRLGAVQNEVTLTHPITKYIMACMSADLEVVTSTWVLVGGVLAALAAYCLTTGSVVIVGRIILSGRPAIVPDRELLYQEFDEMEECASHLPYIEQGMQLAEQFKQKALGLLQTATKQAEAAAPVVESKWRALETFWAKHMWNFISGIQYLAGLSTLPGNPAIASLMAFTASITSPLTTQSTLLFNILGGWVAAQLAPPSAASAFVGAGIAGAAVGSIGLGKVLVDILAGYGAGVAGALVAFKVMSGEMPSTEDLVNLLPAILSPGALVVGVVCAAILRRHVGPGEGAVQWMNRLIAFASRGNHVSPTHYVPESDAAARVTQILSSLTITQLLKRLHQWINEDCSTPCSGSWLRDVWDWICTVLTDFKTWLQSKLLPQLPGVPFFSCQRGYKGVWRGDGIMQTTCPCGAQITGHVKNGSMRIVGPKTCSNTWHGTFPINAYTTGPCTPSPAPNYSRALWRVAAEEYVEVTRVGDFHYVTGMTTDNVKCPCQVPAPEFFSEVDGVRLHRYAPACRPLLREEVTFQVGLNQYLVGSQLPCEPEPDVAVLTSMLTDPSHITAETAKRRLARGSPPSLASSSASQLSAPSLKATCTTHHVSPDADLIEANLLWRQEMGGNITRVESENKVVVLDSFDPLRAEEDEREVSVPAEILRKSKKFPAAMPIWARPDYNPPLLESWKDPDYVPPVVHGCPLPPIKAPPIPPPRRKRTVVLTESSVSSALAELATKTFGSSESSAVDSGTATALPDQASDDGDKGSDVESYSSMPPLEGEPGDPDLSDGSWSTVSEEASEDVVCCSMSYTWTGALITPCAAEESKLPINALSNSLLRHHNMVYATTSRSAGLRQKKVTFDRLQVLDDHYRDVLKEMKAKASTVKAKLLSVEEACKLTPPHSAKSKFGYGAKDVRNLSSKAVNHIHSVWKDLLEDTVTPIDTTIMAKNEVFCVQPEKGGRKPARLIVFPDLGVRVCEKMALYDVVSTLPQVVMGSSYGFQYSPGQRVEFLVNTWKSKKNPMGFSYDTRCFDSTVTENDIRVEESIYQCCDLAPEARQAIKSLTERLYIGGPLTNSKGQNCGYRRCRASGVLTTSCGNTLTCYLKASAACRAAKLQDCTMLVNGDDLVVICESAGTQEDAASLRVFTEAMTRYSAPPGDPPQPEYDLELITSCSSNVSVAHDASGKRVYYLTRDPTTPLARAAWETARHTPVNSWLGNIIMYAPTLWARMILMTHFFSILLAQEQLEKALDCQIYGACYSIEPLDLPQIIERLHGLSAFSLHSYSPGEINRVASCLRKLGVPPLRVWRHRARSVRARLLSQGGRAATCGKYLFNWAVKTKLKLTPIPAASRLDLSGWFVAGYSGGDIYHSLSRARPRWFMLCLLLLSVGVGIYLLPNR

First: COc1ccc(NC(=O)[C@H](CCCCN)NC(=O)OCC2c3ccccc3-c3ccccc32)cc1 [Compound 83, (S)-[5-AMINO-1-(4-METHOXY-PHENYLCARBAMOYL)-PENTYL]-CARBAMIC ACID 9H-FLUOREN-9-YLMETHYL ESTER]
Second: NCCCC[C@H](NC(=O)OCC1c2ccccc2-c2ccccc21)C(=O)Nc1ccncc1 [Compound 232, (S)-[5-AMINO-1-(PYRIDIN-4-YLCARBAMOYL)-PENTYL]-CARBAMIC ACID 9H-FLUOREN-9-YLMETHYL ESTER]
The IC50 of the first is lower: 10 to 50 µM for the first, > 50 µM for the second. The first is the more potent here.

Cc1ccc(NC(=O)C(CCCCN)NS(=O)(=O)c2ccc(S(=O)(=O)c3ccccc3)s2)cc1 [Compound 389, (S)-6-AMINO-2-(5-BENZENESULFONYL-THIOPHENE-2-SULFONYLAMINO)-HEXANOIC ACID P-TOLYLAMIDE] and Cc1ccc(NC(=O)C(CCCCN)NS(=O)(=O)c2cc(S(=O)(=O)c3ccccc3)cs2)cc1 [Compound 388, (S)-6-AMINO-2-(4-BENZENESULFONYL-THIOPHENE-2-SULFONYLAMINO)-HEXANOIC ACID P-TOLYLAMIDE] cannot be ordered by IC50: > 50 µM for the first, > 50 µM for the second.

CCCC[C@H](NC(=O)OCC1c2ccccc2-c2ccccc21)C(=O)Nc1ccc(CN(C(=O)c2ccco2)C2CCCCC2)cc1 [Compound 37, (S)-[1-(4-{[CYCLOHEXYL-(FURAN-2-CARBONYL)-AMINO]-METHYL}-PHENYLCARBAMOYL)-PENTYL]-CARBAMIC ACID 9H-FLUOREN-9-YLMETHYL ESTER] and O=C(CNC(=O)OCC1c2ccccc2-c2ccccc21)Nc1ccc(CN(C(=O)c2ccco2)C2CCCCC2)cc1 [Compound 18, [(4-{[CYCLOHEXYL-(FURAN-2-CARBONYL)-AMINO]-METHYL}-PHENYLCARBAMOYL)-METHYL]-CARBAMIC ACID 9H-FLUOREN-9-YLMETHYL ESTER] cannot be ordered by IC50: > 50 µM for the first, > 50 µM for the second.

Cc1ccc(NC(=O)[C@H](CCCN)NC(=O)Nc2ccc3c(c2)Cc2ccccc2-3)cc1 [Compound 190, (S)-5-AMINO-2-[3-(9H-FLUOREN-2-YL)-UREIDO]-PENTANOIC ACID P-TOLYLAMIDE] and Cc1ccc(NC(=O)[C@@H](CCCN)NC(=O)Nc2ccc3c(c2)Cc2ccccc2-3)cc1 [Compound 193, (R)-5-AMINO-2-[3-(9H-FLUOREN-2-YL)-UREIDO]-PENTANOIC ACID P-TOLYLAMIDE] cannot be ordered by IC50: < 10 µM for the first, < 10 µM for the second.

Compared with NCc1ccc(CNC(=O)[C@@H](NC(=O)Nc2ccc(OCc3ccccc3)cc2)c2ccccc2)cc1 [Compound 304, (S)-N-(4-AMINOMETHYL-BENZYL)-2-[3-(4-BENZYLOXY-PHENYL)-UREIDO]-2-PHENYL-ACETAMIDE], NCCCC[C@H](NC(=O)Nc1ccc(OCc2ccccc2)cc1)C(=O)Nc1nc2ccccc2s1 [Compound 303, (S)-6-AMINO-2-[3-(4-BENZYLOXY-PHENYL)-UREIDO]-HEXANOIC ACID BENZOTHIAZOL-2-YLAMIDE] is higher in IC50: 10 to 50 µM for the first, > 50 µM for the second.

First: Cc1ccc(NC(=O)C(CCCCN)NC(=O)COc2cccc(C(F)(F)F)c2)cc1 [Compound 332, (S)-6-AMINO-2-[2-(3-TRIFLUOROMETHYL-PHENOXY)-ACETYLAMINO]-HEXANOIC ACID P-TOLYLAMIDE]
Second: Cc1ccc(NC(=O)C(CCCCN)NC(=O)Nc2cc(C(F)(F)F)cc(C(F)(F)F)c2)cc1 [Compound 95, (S)-6-AMINO-2-[3-(3,5-BIS-TRIFLUOROMETHYL-PHENYL)-UREIDO]-HEXANOIC ACID P-TOLYLAMIDE]
The IC50 of the first is higher: > 50 µM for the first, 10 to 50 µM for the second.

First: Cc1ccc(NC(=O)[C@H](CCCNC(=O)CN)NC(=O)Nc2ccc(OCc3ccccc3)cc2)cc1 [Compound 322, (S)-5-(2-AMINO-ACETYLAMINO)-2-[3-(4-BENZYLOXY-PHENYL)-UREIDO]-PENTANOIC ACID P-TOLYLAMIDE]
Second: Cc1ccc(NC(=O)[C@H](CCCN)NC(=O)Nc2ccc(OCc3ccccc3)cc2)cc1 [Compound 189, (S)-5-AMINO-2-[3-(4-BENZYLOXY-PHENYL)-UREIDO]-PENTANOIC ACID P-TOLYLAMIDE]
The IC50 of the first is lower: 10 to 50 µM for the first, > 50 µM for the second.

Going from NCCCC[C@H](NC(=O)Nc1ccc2c(c1)Cc1ccccc1-2)C(=O)Nc1ccc(C2CCCCC2)cc1 [Compound 226, (S)-6-AMINO-2-[3-(9H-FLUOREN-2-YL)-UREIDO]-HEXANOIC ACID (4-CYCLOHEXYL-PHENYL)-AMIDE] to NCCC[C@@H](NC(=O)Nc1ccc(-c2ccccc2)cc1)C(=O)Nc1ccc(C2CCCCC2)cc1 [Compound 201, (R)-5-AMINO-2-(3-BIPHENYL-4-YL-UREIDO)-PENTANOIC ACID (4-CYCLOHEXYL-PHENYL)-AMIDE], the IC50 falls from > 50 µM to < 10 µM.

Cc1ccc(NC(=O)C2(NC(=O)OCC3c4ccccc4-c4ccccc43)CCNCC2)cc1 [Compound 138, (4-P-TOLYLCARBAMOYL-PIPERIDIN-4-YL)-CARBAMIC ACID 9H-FLUOREN-9-YLMETHYL ESTER] and Cc1ccc(NC(=O)C(CCCCN(C)C)NC(=O)OCC2c3ccccc3-c3ccccc32)cc1 [Compound 124, (S)-(5-DIMETHYLAMINO-1-P-TOLYLCARBAMOYL-PENTYL)-CARBAMIC ACID 9H-FLUOREN-9-YLMETHYL ESTER] cannot be ordered by IC50: > 50 µM for the first, > 50 µM for the second.

Cc1ccc(NC(=O)[C@H](CCCCN)NS(=O)(=O)c2cc(Cl)cc(Cl)c2)cc1 [Compound 394, (S)-6-AMINO-2-(3,5-DICHLORO-BENZENESULFONYLAMINO)-HEXANOIC ACID P-TOLYLAMIDE] and Cc1ccc(NC(=O)[C@@H](N)CCCCN)cc1 [Compound 114, (S)-2,6-DIAMINO-HEXANOIC ACID P-TOLYLAMIDE] cannot be ordered by IC50: > 50 µM for the first, > 50 µM for the second.

Compared with COC(=O)c1cccc(COc2ccc(NC(=O)NC(CCCCN)C(=O)Nc3ccc(C)cc3)cc2)c1 [Compound 276, (S)-3-{4-[3-(5-AMINO-1-P-TOLYLCARBAMOYL-PENTYL)-UREIDO]-PHENOXYMETHYL}-BENZOIC ACID METHYL ESTER], Cc1ccc(NC(=O)[C@@H](CCCN)NC(=O)Nc2ccc(OCc3ccccc3)cc2)cc1 [Compound 192, (R)-5-AMINO-2-[3-(4-BENZYLOXY-PHENYL)-UREIDO]-PENTANOIC ACID P-TOLYLAMIDE] is higher in IC50: 10 to 50 µM for the first, > 50 µM for the second.

NCCCC[C@H](NC(=O)Cn1cnc2c(NC(=O)c3ccccc3)ncnc21)C(=O)Nc1ccc(CN(C(=O)c2ccco2)C2CCCCC2)cc1 [Compound 46, (S)-FURAN-2-CARBOXYLIC ACID (4-{6-AMINO-2-[2-(6-BENZOYLAMINO-PURIN-9-YL)-ACETYLAMINO]-HEXANOYLAMINO}-BENZYL)-CYCLOHEXYL-AMIDE] and Cc1ccc(NC(=O)C(CCCCN)NC(=O)Nc2cccc(Cc3ccccc3)c2)cc1 [Compound 212, (S)-6-AMINO-2-[3-(3-BENZYL-PHENYL)-UREIDO]-HEXANOIC ACID P-TOLYLAMIDE] fall in the same range of IC50: 10 to 50 µM for the first, 10 to 50 µM for the second.

Compared with Cc1ccc(NC(=O)C2CN(C(=O)CN)CCN2C(=O)Nc2ccc(OCc3ccccc3)cc2)cc1 (racemic) [Compound 308, (±)-4-(2-AMINO-ACETYL)-PIPERAZINE-1,2-DICARBOXYLIC ACID 1-[(4-BENZYLOXY-PHENYL)-AMIDE]2-P-TOLYLAMIDE], Cc1ccc(NC(=O)C(CCCCN)NC(=O)Nc2ccc(-c3ccccc3)cc2)cc1 [Compound 171, (R)-6-AMINO-2-(3-BIPHENYL-4-YL-UREIDO)-HEXANOIC ACID P-TOLYLAMIDE] is lower in IC50: > 50 µM for the first, 10 to 50 µM for the second. The second is the more potent here.

With COc1ccc(NC(=O)N[C@@H](CCCCN)C(=O)Nc2ccc(C)cc2)cc1 [Compound 300, (S)-6-AMINO-2-[3-(4-METHOXY-PHENYL)-UREIDO]-HEXANOIC ACID P-TOLYLAMIDE] the IC50 was > 50 µM.
